Entries after “also recorded” stand apart in the source; their conditions may differ.

A short description of series [1]: Serum and CSF concentrations in monkey (LC-MS/MS). The conditions noted are these: 0.1 mg kg-1. The series is classed as in vivo, rhesus monkey (Macaca mulatta). As for the experimental part: Monkey blood and CSF samples were collected from totally implanted subcutaneous access ports (Access Technologies, Virginia), connected to catheters indwelling in the femoral artery or intrathecal space of the spinal column, respectively. Rodent blood samples and brains were collected immediately following sacrifice at the indicated time points after intraperitoneal injection (10 ml kg^−1) in buffered saline. CSF was immediately frozen on dry ice and stored at −80 °C. Blood samples were allowed to coagulate for 15 min and then centrifuged at 4 °C for 15 min. Serum was collected from the supernatant and stored at a minimum of −30 °C until extraction. To 25 µl of serum, 5 µl of internal standard and 110 µl of methanol were added. Samples were centrifuged for 10 min at 16,200×g at 4 °C and the supernatant was transferred to the autosampler vial for analysis. Brains were cut in half and weighed prior to sample preparation. Half brains were homogenized in 490 µl of 85% ethanol: 15% water containing 0.1% formic acid and 5 µl of internal standard using a polytron homogenizer and centrifuged for 10 min at 16,200×g at 4 °C. […]
Data were acquired using a Nexera XR HPLC (Shimadzu) coupled with a QTRAP 6500 (SCIEX), and was analyzed with Analyst 1.6 (SCIEX). […]
The data were measured using standard curves and quality controls, but it was not validated to ICH guidelines. […]

Series [2] has as its system animals without DREADD expression. Kind of series: In vivo electrophysiology control: electrically evoked responses in animals without DREADD expression. More on the design: species or system mouse. Conditions: same injection. As for the experimental part:
For recording experiments, animals were anesthetized with […] urethane (i.p.), injected with 0.1 ml lidocaine (s.c.) in the incision points, and placed in a stereotaxic holder (Narishige, Japan). A trephine was drilled above the LA (from bregma, AP 1.5 mm, ML 3.1 mm) and the 32 channel opto-electrode was lowered whilst stimulating until a maximum response was located (DV 4 ± 0.2 mm). Body temperature was maintained constant at 37 °C through a feedback-regulated heating pad. Before recording, tissue was left for 10–20 mins for accommodation. Input–output test curves were recorded for both intensity and pulse length 30 min before and 1 h after drug injections using 1 ms-long pulses at 0.33 Hz (450 nm, 110 mA light intensity, ~14 mW, see Supplementary Fig. 10 Panel A). For electrical stimulation experiments (see Supplementary Fig. 10, Panels F–H), a stimulation bipolar twisted platinum–iridium microelectrode was placed in the internal capsule (AP −1.7 mm, ML 2.5 mm, DV 4.0 mm) to target the axons innervating the amygdala. Electrical pulses were given at an intensity that evoked 80% of the maximum response as biphasic 100 µs long pulses at 0.33 Hz.
Raw data were filtered (0.1–3000 Hz), amplified (100×), digitized and stored (10 kHz sampling rate) for offline analysis, with a tethered recording system (Multichannel Systems, Reutlingen, Germany). […]

The target of the next series is hM3Dq (Homo sapiens, UniProt P20309, A239G/Y149C). As to the kind of experiment: DREADD-assisted metabolic mapping (DREAMM), [18F]FDG PET in D1-hM3Dq mice. The series is classed as in vivo, mouse. Details: 026220; host or cells: mouse brain, dopamine D1 receptor-expressing neurons (transgene). The conditions noted are these: 0.1 mg kg-1 IP. As for the experimental part:
(§1) Mice (D1-hM3Dq, D1-hM4Di or WT littermates, see above) were habituated to experimenter handling and fasted 16 h before the experiment. On the day of the experiment, mice received an IP injection of vehicle (1 ml kg^−1) and were placed back into their home cages. Ten minutes later, mice were injected (IP) with 11 MBq of 2-deoxy-2-[^18F]fluoro-D-glucose (FDG, Cardinal Health) and placed back into their home cages. After 30 min, mice were anesthetized with 1.5% isoflurane, placed on a custom-made bed of a nanoScan small animal PET/CT scanner (Mediso Medical Imaging Systems) and scanned for 20 min on a static acquisition protocol, followed by a CT scan. […] Voxel-based repeated measures with Student’s t test comparing baseline to drug were performed, and the resulting parametric images were filtered for statistically significant (p < 0.05) clusters larger than 100 contiguous voxels. All statistical parametric mapping analyses were performed using Matlab R2016 (Mathworks) and SPM12 (University College London).

Another series addresses T1, hM4Di (Homo sapiens, UniProt P08173, A203G/Y113C).
T1 sequence (P08173 1-479 Y113C/A203G): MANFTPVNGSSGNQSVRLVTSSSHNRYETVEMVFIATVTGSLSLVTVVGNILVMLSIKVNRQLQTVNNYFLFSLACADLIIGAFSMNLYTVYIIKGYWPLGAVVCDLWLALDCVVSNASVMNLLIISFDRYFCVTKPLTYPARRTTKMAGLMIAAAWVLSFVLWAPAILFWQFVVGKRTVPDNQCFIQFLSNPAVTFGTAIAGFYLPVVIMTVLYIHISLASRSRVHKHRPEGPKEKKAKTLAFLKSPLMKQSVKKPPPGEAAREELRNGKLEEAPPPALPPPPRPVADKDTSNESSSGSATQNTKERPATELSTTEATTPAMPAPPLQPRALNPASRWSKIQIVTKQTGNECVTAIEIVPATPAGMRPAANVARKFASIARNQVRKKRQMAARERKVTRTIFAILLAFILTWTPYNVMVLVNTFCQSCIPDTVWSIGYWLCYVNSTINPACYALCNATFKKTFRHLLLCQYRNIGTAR
Kind of series: DREADD-assisted metabolic mapping (DREAMM), [18F]FDG PET in D1-hM4Di mice. It is filed as in vivo, mouse. Details: 026219; host or cells: mouse brain, dopamine D1 receptor-expressing neurons (transgene). Conditions: 0.1 mg kg-1 IP. As for the experimental part: as §1

The subject of series [3] is mu, kappa, and delta opioid receptors. Kind of series: Binding and enzyme target profile screen (Eurofins). The conditions noted are these: competitive binding screen, 10 uM. As for the experimental part: These experiments were performed by an outside vendor (Eurofins, France). […] In each experiment, the respective reference compound was tested concurrently with the test compound to assess the assay reliability. […] Following incubation, the samples were filtered rapidly under vacuum through glass fiber filters presoaked in a buffer and rinsed several times with an ice-cold buffer using a 48-sample or 96-sample cell harvester. The filters were counted for radioactivity in a scintillation counter using a scintillation cocktail.

Sequence of hM3Dq (P20309 whole entry Y149C/A239G): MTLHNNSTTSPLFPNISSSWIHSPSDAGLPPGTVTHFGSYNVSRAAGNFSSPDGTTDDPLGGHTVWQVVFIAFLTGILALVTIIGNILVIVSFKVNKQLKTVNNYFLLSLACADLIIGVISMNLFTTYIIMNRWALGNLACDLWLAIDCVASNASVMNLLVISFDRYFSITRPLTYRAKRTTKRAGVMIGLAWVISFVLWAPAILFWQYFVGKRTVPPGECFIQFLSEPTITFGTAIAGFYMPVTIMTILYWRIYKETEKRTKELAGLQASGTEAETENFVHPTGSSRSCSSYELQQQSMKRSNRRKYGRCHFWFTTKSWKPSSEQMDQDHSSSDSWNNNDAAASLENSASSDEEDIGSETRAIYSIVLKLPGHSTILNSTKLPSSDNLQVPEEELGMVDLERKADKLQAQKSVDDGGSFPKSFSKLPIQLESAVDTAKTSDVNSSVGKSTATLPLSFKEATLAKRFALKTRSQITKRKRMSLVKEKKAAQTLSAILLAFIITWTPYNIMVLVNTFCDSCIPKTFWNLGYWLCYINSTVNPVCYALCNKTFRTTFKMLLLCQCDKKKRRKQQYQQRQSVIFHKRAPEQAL

Consider `CCN1CCN(C2=Nc3cc(Cl)ccc3Nc3c(F)cccc32)CC1` [JHU37160, 8-Chloro-11-(4-ethylpiperazin-1-yl)-4-fluoro-5H-dibenzo[b,e][1,4]diazepine], for which the CSF concentration entry in series [1] is listed as “below our system’s detection limit”. The serum detection entry in series [1] was “detected in serum”. The “effect on electrical stimulation evoked responses” value in series [2] was “no effect”. The entries for the “brain metabolism ([18F]FDG)” value on hM3Dq and on hM4Di were “decreased metabolism” and “increased metabolism”, respectively.

`c1ccc2c(c1)N=C(N1CCNCC1)c1ccccc1N2` [C21]: in series [3], the “binding to opioid receptors” value is “exhibited binding to mu, kappa, and delta opioid receptors; also recorded: binds to opioid receptors”.

(Values after PMC6788984, “High-potency ligands for DREADD imaging and activation in rodents and monkeys” (Nature Communications, 2019).)
